# According to ChEMBL document CHEMBL1128075, “Chemical modification and structure-activity relationships of pyripyropenes; potent, bioavailable inhibitor of acyl-CoA: Cholesterol O-acyltransferase (ACAT)” (Bioorg Med Chem Lett, 1995):
# Target: T1, Sterol O-acyltransferase 2 (Rattus norvegicus, UniProt Q7TQM4)
# T1 sequence (Q7TQM4 whole entry): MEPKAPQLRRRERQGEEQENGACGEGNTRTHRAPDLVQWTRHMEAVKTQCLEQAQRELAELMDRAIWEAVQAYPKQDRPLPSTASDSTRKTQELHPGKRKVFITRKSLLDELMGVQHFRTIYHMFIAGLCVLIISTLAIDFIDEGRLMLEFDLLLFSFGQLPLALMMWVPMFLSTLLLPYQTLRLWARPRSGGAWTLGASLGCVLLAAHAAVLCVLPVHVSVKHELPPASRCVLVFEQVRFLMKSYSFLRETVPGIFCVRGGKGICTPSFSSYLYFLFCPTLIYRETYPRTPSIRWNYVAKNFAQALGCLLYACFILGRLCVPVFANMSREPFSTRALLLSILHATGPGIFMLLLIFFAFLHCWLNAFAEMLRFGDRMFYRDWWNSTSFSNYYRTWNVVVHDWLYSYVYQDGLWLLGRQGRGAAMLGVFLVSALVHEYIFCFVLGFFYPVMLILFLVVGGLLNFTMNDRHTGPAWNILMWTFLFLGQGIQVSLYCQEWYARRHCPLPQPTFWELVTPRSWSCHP
# Test: Inhibitory activity against acyl-CoA:cholesterol O-acyltransferase (ACAT)
row,SMILES,IC50
1,"CC(=O)OCC1(C)C2C[C@H](OC(C)=O)[C@@]3(C)Oc4cc(-c5cccnc5)oc(=O)c4C(=O)C3[C@@]2(C)CC[C@@H]1OC(C)=O (single isomer, unassigned)",2100 nM
2,"CC(=O)OCC1(C)C2C[C@H](OC(C)=O)[C@@]3(C)Oc4cc(-c5cccnc5)oc(=O)c4[C@H](OC(C)=O)C3[C@@]2(C)CC[C@@H]1OC(C)=O (single isomer, unassigned)",5100 nM
3,"CC(=O)OCC1(C)C2C[C@H](OS(C)(=O)=O)[C@@]3(C)Oc4cc(-c5cccnc5)oc(=O)c4[C@H](O)C3[C@@]2(C)CC[C@@H]1OC(C)=O (single isomer, unassigned)",1800 nM
4,CC(=O)OC[C@@]1(C)C2C[C@H](OCC(C)C)[C@@]3(C)Oc4cc(-c5cccnc5)oc(=O)c4[C@H](O)C3[C@@]2(C)CC[C@@H]1OC(C)=O (stereo partly specified),130 nM
5,CCCCOC[C@@]1(C)C2C[C@H](OC(C)=O)[C@@]3(C)Oc4cc(-c5cccnc5)oc(=O)c4[C@H](O)C3[C@@]2(C)CC[C@@H]1OC(C)=O (stereo partly specified),4200 nM
6,CC(=O)O[C@H]1CC[C@@]2(C)C(C[C@H](OC(C)=O)[C@@]3(C)Oc4cc(-c5cccnc5)oc(=O)c4[C@H](O)C23)[C@]1(C)COCC(C)C (stereo partly specified),5900 nM
7,CC(=O)OC[C@@]1(C)C2C[C@H](OC(C)=O)[C@@]3(C)Oc4cc(-c5cccnc5)oc(=O)c4C=C3[C@@]2(C)CC[C@@H]1OC(C)=O (stereo partly specified),5800 nM
8,"CC1(CO)C2C[C@H](O)[C@@]3(C)Oc4cc(-c5cccnc5)oc(=O)c4[C@H](O)C3[C@@]2(C)CC[C@@H]1O (single isomer, unassigned)",> 220000 nM
9,"CC(=O)OCC1(C)C2C[C@H](OCc3ccccc3)[C@@]3(C)Oc4cc(-c5cccnc5)oc(=O)c4[C@H](O)C3[C@@]2(C)CC[C@@H]1OC(C)=O (single isomer, unassigned)",7400 nM
10,"CO[C@H]1c2c(cc(-c3cccnc3)oc2=O)O[C@@]2(C)C1[C@@]1(C)CC[C@H](OC(C)=O)C(C)(COC(C)=O)C1C[C@@H]2OC(C)=O (single isomer, unassigned)",38000 nM
11,CCCO[C@H]1c2c(cc(-c3cccnc3)oc2=O)O[C@@]2(C)C1[C@@]1(C)CC[C@H](OC(C)=O)[C@@](C)(COC(C)=O)C1C[C@@H]2OC(C)=O (stereo partly specified),23000 nM
12,"CC(=O)O[C@H]1CC2C(C)(CO)[C@@H](O)CC[C@]2(C)C2[C@@H](O)c3c(cc(-c4cccnc4)oc3=O)O[C@@]21C (single isomer, unassigned)",100000 nM
13,"CC1(C)OCC2(C)C3C[C@H](O)[C@@]4(C)Oc5cc(-c6cccnc6)oc(=O)c5[C@H](O)C4[C@@]3(C)CC[C@@H]2O1 (single isomer, unassigned)",> 200000 nM
14,CCCC(N)C(=O)O[C@H]1CC2[C@](C)(CC[C@@H]3OC(=O)OC[C@@]23C)C2[C@@H](O)c3c(cc(-c4cccnc4)oc3=O)O[C@@]21C (stereo partly specified),2500 nM
15,CCCC(N)C(=O)O[C@H]1c2c(cc(-c3cccnc3)oc2=O)O[C@@]2(C)C1[C@@]1(C)CC[C@H](OC(C)=O)[C@@](C)(COC(C)=O)C1C[C@@H]2OC(C)=O (stereo partly specified),16000 nM
16,CC(=O)OC[C@@]1(C)C2C[C@H](OC(C)=O)[C@@]3(C)Oc4cc(-c5ccc[n+]([O-])c5)oc(=O)c4[C@H](O)C3[C@@]2(C)CC[C@@H]1OC(C)=O (stereo partly specified),5800 nM
17,"CC(=O)OCC1(C)C2C[C@H](OC(C)=O)[C@@]3(C)Oc4cc(-c5ccc[n+](C)c5)oc(=O)c4[C@H](O)C3[C@@]2(C)CC[C@@H]1OC(C)=O (single isomer, unassigned)",2100 nM
18,CCCC(N)C(=O)O[C@H]1CC2[C@](C)(CC[C@@H]3OC(C)(c4ccccc4)OC[C@@]23C)C2[C@@H](O)c3c(cc(-c4cccnc4)oc3=O)O[C@@]21C (stereo partly specified),910 nM
19,"CC(=O)O[C@H]1CC[C@@]2(C)C(C[C@H](OC(C)=O)[C@@]3(C)Oc4cc(-c5cccnc5)oc(=O)c4[C@H](O)C23)C1(C)COS(=O)(=O)c1ccccc1 (single isomer, unassigned)",110000 nM
20,CCCCO[C@H]1c2c(cc(-c3cccnc3)oc2=O)O[C@@]2(C)C1[C@@]1(C)CC[C@H](OC(C)=O)[C@@](C)(COC(C)=O)C1C[C@@H]2OC(C)=O (stereo partly specified),2400 nM
21,"CC12COC(c3ccccc3)O[C@H]1CC[C@@]1(C)C2C[C@H](O)[C@@]2(C)Oc3cc(-c4cccnc4)oc(=O)c3[C@H](O)C12 (single isomer, unassigned)",> 180000 nM
22,"CC(=O)O[C@H]1CC2C3(C)COC(C)(C)O[C@H]3CC[C@]2(C)C2[C@@H](O)c3c(cc(-c4cccnc4)oc3=O)O[C@@]21C (single isomer, unassigned)",1200 nM
23,CCCC(N)C(=O)OC[C@@]1(C)C2C[C@H](OC(C)=O)[C@@]3(C)Oc4cc(-c5cccnc5)oc(=O)c4[C@H](O)C3[C@@]2(C)CC[C@@H]1OC(C)=O (stereo partly specified),> 8000 nM
24,CC(=O)OC[C@@]1(C)C2C[C@H](OC(C)=O)[C@@]3(C)Oc4cc(-c5cccnc5)oc(=O)c4[C@H](O)C3[C@@]2(C)CC[C@@H]1OCC(C)C (stereo partly specified),130 nM
25,"CC(=O)OCC1(C)C2C[C@H](OS(=O)(=O)c3ccccc3)[C@@]3(C)Oc4cc(-c5cccnc5)oc(=O)c4[C@H](O)C3[C@@]2(C)CC[C@@H]1OC(C)=O (single isomer, unassigned)",3100 nM
26,CCCC(N)C(=O)O[C@H]1CC2[C@](C)(CC[C@H](O)[C@@]2(C)CO)C2[C@@H](O)c3c(cc(-c4cccnc4)oc3=O)O[C@@]21C (stereo partly specified),79000 nM

# Further compounds by falling IC50, results first:
row,IC50,SMILES
1,620 nM,CCCC(N)C(=O)O[C@H]1CC[C@@]2(C)C(C[C@H](OC(C)=O)[C@@]3(C)Oc4cc(-c5cccnc5)oc(=O)c4[C@H](O)C23)[C@]1(C)COC(C)=O (stereo partly specified)
2,270 nM,CCCOC[C@@]1(C)C2C[C@H](OC(C)=O)[C@@]3(C)Oc4cc(-c5cccnc5)oc(=O)c4[C@H](O)C3[C@@]2(C)CC[C@@H]1OC(C)=O (stereo partly specified)
3,200 nM,CCCCO[C@H]1CC[C@@]2(C)C(C[C@H](OC(C)=O)[C@@]3(C)Oc4cc(-c5cccnc5)oc(=O)c4[C@H](O)C23)[C@]1(C)COC(C)=O (stereo partly specified)
4,140 nM,CCCO[C@H]1CC[C@@]2(C)C(C[C@H](OC(C)=O)[C@@]3(C)Oc4cc(-c5cccnc5)oc(=O)c4[C@H](O)C23)[C@]1(C)COC(C)=O (stereo partly specified)
5,120 nM,"CC(=O)O[C@H]1CC2C3(C)COC(c4ccccc4)O[C@H]3CC[C@]2(C)C2[C@@H](O)c3c(cc(-c4cccnc4)oc3=O)O[C@@]21C (single isomer, unassigned)"
6,86 nM,CCCC(N)C(=O)O[C@H]1CC2[C@](C)(CC[C@@H]3OC(C)(C)OC[C@@]23C)C2[C@@H](O)c3c(cc(-c4cccnc4)oc3=O)O[C@@]21C (stereo partly specified)
7,67 nM,CCCO[C@H]1CC2[C@](C)(CC[C@H](OC(C)=O)[C@@]2(C)COC(C)=O)C2[C@@H](O)c3c(cc(-c4cccnc4)oc3=O)O[C@@]21C (stereo partly specified)
8,39 nM,CCCC(N)C(=O)O[C@H]1CC2[C@](C)(CC[C@@H]3OC4(CCCCC4)OC[C@@]23C)C2[C@@H](O)c3c(cc(-c4cccnc4)oc3=O)O[C@@]21C (stereo partly specified)
9,38 nM,CCCCO[C@H]1CC2[C@](C)(CC[C@H](OC(C)=O)[C@@]2(C)COC(C)=O)C2[C@@H](O)c3c(cc(-c4cccnc4)oc3=O)O[C@@]21C (stereo partly specified)
10,33 nM,CCCC(N)C(=O)O[C@H]1CC2[C@](C)(CC[C@@H]3OC(CC)OC[C@@]23C)C2[C@@H](O)c3c(cc(-c4cccnc4)oc3=O)O[C@@]21C (stereo partly specified)
11,25 nM,CCCC(N)C(=O)O[C@H]1CC2[C@](C)(CC[C@@H]3OC(C)OC[C@@]23C)C2[C@@H](O)c3c(cc(-c4cccnc4)oc3=O)O[C@@]21C (stereo partly specified)
12,19 nM,"CC(=O)O[C@H]1CC[C@@]2(C)C(C[C@H](OC(C)=O)[C@@]3(C)Oc4cc(-c5cccnc5)oc(=O)c4[C@H](O)C23)C1(C)COS(C)(=O)=O (single isomer, unassigned)"
13,13 nM,CCCC(N)C(=O)O[C@H]1CC2[C@](C)(CC[C@H](OC(C)=O)[C@@]2(C)COC(C)=O)C2[C@@H](O)c3c(cc(-c4cccnc4)oc3=O)O[C@@]21C (stereo partly specified)
14,6 nM,CCCC(N)C(=O)O[C@H]1CC2[C@](C)(CC[C@@H]3OC(c4ccccc4)OC[C@@]23C)C2[C@@H](O)c3c(cc(-c4cccnc4)oc3=O)O[C@@]21C (stereo partly specified)

# Tested on: Cricetinae gen. sp.
# Test: Effective dose for inhibition of [3H]- cholesterol absorption in a hamster model.
# Assay type: functional, Cricetulus griseus
row,SMILES,ED50
1,"CC(=O)O[C@H]1CC[C@@]2(C)C(C[C@H](OC(C)=O)[C@@]3(C)Oc4cc(-c5cccnc5)oc(=O)c4[C@H](O)C23)C1(C)COS(C)(=O)=O (single isomer, unassigned)",10 mg/kg
